Test results: patent US20060276534A1, “Methods of decreasing calcification” (Amgen Inc., priority 2005, published 2006)

Columns and labels:
[1] = test system: adenine-induced CKD rats; assay: Parathyroid hyperplasia (PCNA immunohistochemistry, parathyroid weight) in adenine-induced CKD model; type: in vivo, rat; conditions: adenine diet rats, vs vehicle
Description: (§1) Male Sprague-Dawley rats (Charles River Laboratories) weighing 300-350 grams were used in these studies. All animals received standard lab chow (Harlan Teklad, Madison, Wis.) prior to the start of the studies. The standard lab chow was changed to a standard rodent lab chow that contained 0.75% adenine. Animals received food and water ad libitum. The animal protocol was approved by the Institutional Animal Care and Use Committee of Amgen Inc. (Thousand Oaks, Calif.).
(§2) Animals were fed the adenine containing chow for 21 days, and prior to the start of the adenine diet animals were pre-bleed for baseline measurements of ionized calcium, PTH, BUN and creatinine and phosphorus levels (FIG. 9).
(§3) Prior to placing animals on an adenine diet or administration of Compound B or vehicle baseline determininations of serum P, Ca, BUN, PTH and creatinine were performed. […] For measurement of blood ionized calcium levels, blood was collected from the abdominal aorta under anesthesthia (2% isofluorane in O2), prior to sacrifice, with heparinized capillary tubes and analyzed using a Ciba-Corning 634 ISE Ca^++/pH Analyzer (Ciba-Corning Diagnostics Corp, Medfield, Mass.). […] PTH levels were quantified according to the vendor's instructions using a rat PTH(1-34) immunoradiometric assay kit (Immutopics, San Clemente, CA). […]

[2] = test system: adenine-induced CKD rats; assay: PTH and serum chemistry profile in adenine-induced CKD model with vascular calcification; type: in vivo, rat; conditions: adenine diet rats, Compound B 3 mg/kg p.o. daily 21 days, vs vehicle
Description: as §1, §2
Prior to placing animals on an adenine diet or administration of Compound B or vehicle baseline determininations of serum P, Ca, BUN, PTH and creatinine were performed. Blood was removed from the orbital sinus under while the rats were under anesthetisa (2% isoflurane in O2). After the time 0 bleed, animals were placed on the adenine containing chow and were administered Compound B at 3 mg/kg p.o. or vehicle (12% captisol in water) daily for 21 days. At the end of the study (day 21) animals were sacrificed and the aorta and parathyroid glands were removed for histopathological analysis. Blood was removed for blood chemistries and PTH determinations. For measurement of blood ionized calcium levels, blood was collected from the abdominal aorta under anesthesthia (2% isofluorane in O2), prior to sacrifice, with heparinized capillary tubes and analyzed using a Ciba-Corning 634 ISE Ca^++/pH Analyzer (Ciba-Corning Diagnostics Corp, Medfield, Mass.). Separately, blood was collected for PTH, blood urea nitrogen (BUN), creatinine, and serum phosphorus levels into SST (clot activator) brand blood tubes (BD, Franklin Lakes, N.J.) and allowed to clot. Serum was removed and stored at −70° C. until assayed. PTH levels were quantified according to the vendor's instructions using a rat PTH(1-34) immunoradiometric assay kit (Immutopics, San Clemente, CA). BUN, creatinine, and phosphorus levels were determined using a blood chemistry analyzer (Olympus AU 400, Melville, N.Y.).

[3] = test system: adenine-induced CKD rats; assay: Aortic vascular calcification by bone mineral density (PIXImus) in adenine-induced CKD model; type: in vivo, rat; conditions: adenine diet rats; Compound B 3 mg/kg p.o. daily 21 days, compared to vehicle on the same diet
Description: as §1
as §3, with “performed. Blood was removed from the orbital sinus under while the rats were under anesthetisa (2% isoflurane in O2).” for “performed.”, “CA). BUN, creatinine, and phosphorus levels were determined using a blood chemistry analyzer (Olympus AU 400, Melville, N.Y.).” for “CA).”

[4] = test system: 5/6 Nx rats; assay: Ca and P content of thoracic aorta in 5/6 Nx rats given paricalcitol and/or Compound B (Example 3); type: in vivo, rat
Description: Wistar rats (200-250g), fed a 0.6% Ca and 1.2% P diet, were 5/6 nephrectomized (5/6 Nx) or sham-operated (sham).

[5] = test system: 5/6 Nx rats; assay: Soft tissue mineralization by Von Kossa staining in 5/6 Nx rats (Example 4); type: in vivo, rat; conditions: 14 days
Description: Wistar rats (200-250g), fed a 0.6% Ca and 1.2% P diet, were 5/6 nephrectomized (5/6 Nx).

[6] = test system: 5/6 Nx rats; assay: Serum PTH, ionized Ca, P and creatinine in 5/6 Nx rats given paricalcitol and/or Compound B (Example 3); conditions: 14 days
[7] = 5/6 Nx rats, 14 days, compared to vehicle treated 5/6 Nx animals (Compound B also vs sham)
[8] = Compound B administered to paricalcitol treated 5/6 Nx rats, compared to 5/6 Nx rats treated with paricalcitol
[9] = thoracic aorta, 5/6Nx rats, 14 days, paricalcitol 240 ng/kg every 48 hr ip, Compound B 1.5 mg/kg every 48 hr sc
[10] = Compound B 1.5 mg/kg every 48 hr sc to calcitriol-treated 5/6 Nx rats
[11] = 5/6 Nx rats, compared to 5/6 Nx+vehicle
[12] = 5/6Nx rats, paricalcitol 240 ng/kg every 48 hr ip, Compound B 1.5 mg/kg every 48 hr sc
[13] = serum, 5/6Nx rats, paricalcitol 240 ng/kg every 48 hr ip, Compound B 1.5 mg/kg every 48 hr sc

Creatinine levels ([2]; p<0.05): decrease
Blood urea nitrogen (BUN) ([2]; p>0.05): no significant treatment effect
Creatinine, change in words [6, 11]: no changes
Creatinine [6, 12]: 0.98 ± 0.1 mg/dL
Compound: COc1ccc(CNC(C)c2ccccc2)cc1-c1ccc(C(F)(F)F)cc1 (stereo not drawn) [Compound B, N-((6-(methyloxy)-4′-(trifluoromethyl)-1,1′-biphenyl-3-yl)methyl)-1-phenylethanamine]
Number of PCNA-positive cells (parathyroid) ([1]; Compound B 3 mg/kg p.o. daily 3 weeks): significantly (p<0.01) reduced
Parathyroid weights ([1]; Compound B 3 mg/kg p.o. daily 21 days): significantly decreased
Serum P levels [2]: no significant (p>0.05) treatment effect
Serum PTH levels ([2]; p<0.0001): significantly reduced
Total serum calcium ([2]; p=0.0001): significantly reduced
Serum ionized calcium (iCa) ([2]; p=0.004): significantly reduced
Reduction aortic bone mineral density [3]: 75%
Aortic Ca content, change in words [4, 7]: did not significantly change
Aortic P content, change in words [4, 7]: did not significantly change
Aortic Ca content, change in words [4, 8]: significantly (p<0.05) reduced
Aortic P content, change in words [4, 8]: significantly (p<0.05) reduced
Aortic Ca [4, 9]: 2.6 ± 0.16 mg/g
Aortic P [4, 9]: 0.33 ± 0.05 mg/g
Heart mineralization (Von Kossa staining) [5, 10]: reduced
Kidney mineralization (Von Kossa staining) [5, 10]: reduced
Lung mineralization (Von Kossa staining) [5, 10]: reduced
Kidney mineralization (Von Kossa staining) ([5]; Compound B 1.5 mg/kg every 48 hr sc to paricalcitol-treated 5/6 Nx rats): reduced
Blood ionized calcium, change in words [6, 11]: no changes
Serum P levels, change in words [6, 11]: no changes
Serum PTH levels, change in words [6, 11]: significantly (p<0.05) decreased
Ionized Ca [6, 12]: 0.93 ± 0.06 mM
P [6, 13]: 9.5 ± 1.5 mg/dL
PTH [6, 13]: 45 ± 1.8 pg/mL
